Values of other authors as cited in patent publication US7094805B2, “Total synthesis of merrilactone A” (The Trustees of Columbia University in the City of New York, priority 2001, dated 2006).

System: fetal rat cortical neurons

SMILES: C[C@@]12COC(=O)[C@]1(C)[C@@H]1O[C@]3(C)[C@@H](O)C[C@]24OC(=O)C[C@]143 (racemic) [compound 1, merrilactone A]
- promotion of neurite outgrowth (general statement): promote neurite outgrowth
- concentrations at which neurite outgrowth is greatly promoted (preliminary studies, natural merrilactone A, "at concentrations as low as"): 0.1 to 10 µmol
